The source of these data is US10752588B2 (The Broad Institute, Inc., priority 2014, dated 2020).

Like-named read-outs stand apart in the source and are kept apart here.

Data set [1] deals with T1, human D2R/β-arrestin (Homo sapiens (Human), UniProt P14416). As to conditions: read-out: β-arrestin Antagonist.
Data set [2] deals with T1, human D2R/β-arrestin. As to the kind of experiment: Gi/cAMP agonist assay (Lance Ultra cAMP, Forskolin). As to conditions: CHO-K1 cell line expressing human D2R/β-arrestin. The data set is classed as cell-based. The essentials: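 Cells were plated and incubated before compounds were pin-transferred and incubated for 10 min at 37 °C. Forskolin was then added to stimulate cAMP. cAMP was detected by Lance Ultra TR-FRET using Eu-cAMP tracer and ULight-anti-cAMP antibody.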

Data set [3] addresses T1, human D2R/β-arrestin. Kind of data set: β-Arrestin agonist assay (PathHunter). It is filed as cell-based. As to conditions: CHO-K1 cell line expressing human D2R/β-arrestin. The essentials: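 After compound incubation, detection reagent (Buffer:Emerald II:Galactor-Star, 19:5:1) added and luminescence or fluorescence read.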
The target in data set [4] is T1, human D2R/β-arrestin. As to the kind of experiment: cell-based. As to conditions: cAMP Antagonist.
Data set [5] deals with T1, human D2R/β-arrestin. As to conditions: read-out: cAMP Antagonist; CHO-K1 cell line expressing human D2R/β-arrestin; quinpirole used as agonist.
The target of data set [6] is T1, human D2R/β-arrestin. Kind of data set: cell-based. As to conditions: β-arrestin Antagonist, CHO-K1 cell line expressing human D2R/β-arrestin; quinpirole used as agonist.
Data set [7] is described as follows: Microsomal stability, mouse.
The mark [8] stands for this setting: CHO-K1 cell line expressing human D2R/β-arrestin, quinpirole used as agonist.

T1 sequence (P14416 whole entry): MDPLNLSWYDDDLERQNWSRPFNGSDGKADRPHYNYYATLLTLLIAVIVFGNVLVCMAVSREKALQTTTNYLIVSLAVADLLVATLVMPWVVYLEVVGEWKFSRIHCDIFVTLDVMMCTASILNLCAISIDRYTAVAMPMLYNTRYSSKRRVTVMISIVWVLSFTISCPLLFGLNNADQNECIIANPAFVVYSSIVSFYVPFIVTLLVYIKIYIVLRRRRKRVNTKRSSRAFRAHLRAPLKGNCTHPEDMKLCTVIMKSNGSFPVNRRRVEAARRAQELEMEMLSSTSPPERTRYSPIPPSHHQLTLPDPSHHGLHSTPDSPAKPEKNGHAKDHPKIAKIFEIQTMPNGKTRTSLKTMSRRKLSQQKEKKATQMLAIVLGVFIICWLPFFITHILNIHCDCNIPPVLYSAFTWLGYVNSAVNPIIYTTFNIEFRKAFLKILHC

For `O=C(NC(c1ccc(Cl)cc1)c1ccccn1)C1CCN(CCOc2cccc(Cl)c2)CC1` (single isomer, unassigned) [Compound 1b, 1-(2-(3-chlorophenoxy)ethyl)-N-((4-chlorophenyl)(pyridin-2-yl)methyl)piperidine-4-carboxamide], the values for the IC50 on human D2R/β-arrestin [1] (setting [8]) and at human D2R/β-arrestin [4] (setting [8]) were 1000 to 10000 nM and over 30000 nM, respectively. Besides, the concentration giving a half-maximal response (EC50) – broadly, the concentration giving half of the maximal effect – on human D2R/β-arrestin [2] is under 100 nM; at human D2R/β-arrestin [3], 1000 to 10000 nM.
Consider `COc1cccc(C(c2ccccn2)N(C)CC2CCN(CCOc3ccccc3)CC2)c1` (single isomer, unassigned) [Compound 76b, 1-(3-methoxyphenyl)-N-methyl-N-((1-(2-phenoxyethyl)piperidin-4-yl)methyl)-1-(pyridin-2-yl)methanamine], for which the IC50 on human D2R/β-arrestin [1] (setting [8]) and on human D2R/β-arrestin [4] (setting [8]) was 1000 to 10000 nM in each case. Further, the EC50 on human D2R/β-arrestin [2] is 1000 to 10000 nM; at human D2R/β-arrestin [3] it was over 30000 nM.
For `COc1cccc(C(c2ccccn2)N(C)CC2CCN(CCOc3ccccc3F)CC2)c1` (single isomer, unassigned) [Compound 77b, N-((1-(2-(2-fluorophenoxy)ethyl)piperidin-4-yl)methyl)-1-(3-methoxyphenyl)-N-methyl-1-(pyridin-2-yl)methanamine], the EC50 on human D2R/β-arrestin [2] and at human D2R/β-arrestin [3] was over 30000 nM each time. The IC50 at human D2R/β-arrestin [5] was 100 to 1000 nM; at human D2R/β-arrestin [6] it was 1000 to 10000 nM.
For `Fc1ccccc1C(NCC1CCN(CCOc2ccccc2)CC1)c1ccc(Cl)cc1` (single isomer, unassigned) [Compound 81b, 1-(4-chlorophenyl)-1-(2-fluorophenyl)-N-((1-(2-phenoxyethyl)piperidin-4-yl)methyl)methanamine], the EC50 on human D2R/β-arrestin [2] and at human D2R/β-arrestin [3] was over 30000 nM each time. The IC50 at human D2R/β-arrestin [5] was 100 to 1000 nM; at human D2R/β-arrestin [6], 1000 to 10000 nM.
With `O=C(NC(c1cccc(OC(F)(F)F)c1)c1ccccn1)C1CCN(CCOc2ccccc2F)CC1` (single isomer, unassigned) [Compound 93b, 1-(2-(2-fluorophenoxy)ethyl)-N-(pyridin-2-yl(3-(trifluoromethoxy)phenyl)methyl)piperidine-4-carboxamide], the IC50 on human D2R/β-arrestin [1] (setting [8]) is 1000 to 10000 nM; on human D2R/β-arrestin [4] (setting [8]), over 30000 nM. For the same molecule, the EC50 on human D2R/β-arrestin [2] was 100 to 1000 nM; at human D2R/β-arrestin [3] it was over 30000 nM. Also, the “Microsomal Stability: % remaining after 60 minutes” value (from here on “Microsomal Stability: % remaining”) in data set [7] is “m19%”.
In the case of `CC(C1CCN(CCOc2ccccc2)CC1)N(C)C(c1ccc(Cl)cc1)c1ccccn1` (single isomer, unassigned) [Compound 97b, N-((4-chlorophenyl)(pyridin-2-yl)methyl)-N-methyl-1-(1-(2-phenoxyethyl)piperidin-4-yl)ethan-1-amine], the results for the EC50 on human D2R/β-arrestin [2] and on human D2R/β-arrestin [3] were 100 to 1000 nM and over 30000 nM, respectively. The “Microsomal Stability: % remaining” value in data set [7] is reported as “m3%”. For the same molecule, the IC50 at human D2R/β-arrestin [6] and on human D2R/β-arrestin [4] (setting [8]) was 100 to 1000 nM each time.
Take `CC1(CNC(c2ccc(F)cc2)c2ccccn2)CCN(CCOc2ccccc2C(F)(F)F)CC1` (single isomer, unassigned) [Compound 101b, 1-(4-fluorophenyl)-N-((4-methyl-1-(2-(2-(trifluoromethyl)phenoxy)ethyl)piperidin-4-yl)methyl)-1-(pyridin-2-yl)methanamine]: at human D2R/β-arrestin [1] (setting [8]), the IC50 lay in the range of 100 to 1000 nM. On human D2R/β-arrestin [3], this molecule registered an EC50 of over 30000 nM.
As for `CC(C)N(CC1CCN(CCOc2ccccc2)CC1)C(c1ccc(Cl)cc1)c1ccccn1` (single isomer, unassigned) [Compound 103b, N-((4-chlorophenyl)(pyridin-2-yl)methyl)-N-((1-(2-phenoxyethyl)piperidin-4-yl)methyl)propan-2-amine], the IC50 on human D2R/β-arrestin [1] is 100 to 1000 nM; against human D2R/β-arrestin [4], over 30000 nM. Besides, the figures for the concentration for a half-maximal effect (EC50) at human D2R/β-arrestin [2] and at human D2R/β-arrestin [3] were under 100 nM and 100 to 1000 nM, respectively.
`Clc1ccc(C(c2ccccn2)N2CCC3(CCN(CCOc4ccccc4)CC3)C2)cc1` (single isomer, unassigned) [Compound 105a, 2-((4-chlorophenyl)(pyridin-2-yl)methyl)-8-(2-phenoxyethyl)-2,8-diazaspiro[4.5]decane]: the results for the EC50 at human D2R/β-arrestin [2] and on human D2R/β-arrestin [3] were under 100 nM and 100 to 1000 nM, respectively. Moreover, the “Microsomal Stability: % remaining” value in data set [7] is listed as “m1%”. The IC50 on human D2R/β-arrestin [6] is 100 to 1000 nM; on human D2R/β-arrestin [4] (setting [8]), over 30000 nM.
In the case of `Clc1ccc(C(c2ccccn2)N2CCC3(CCN(CCOc4ccccc4)CC3)C2)cc1` (single isomer, unassigned) [Compound 105b, 2-((4-chlorophenyl)(pyridin-2-yl)methyl)-8-(2-phenoxyethyl)-2,8-diazaspiro[4.5]decane], the half-maximal effective concentration (EC50) lay within 100 to 1000 nM on human D2R/β-arrestin [2] and 1000 to 10000 nM at human D2R/β-arrestin [3]. For the same molecule, the IC50 at human D2R/β-arrestin [5] is over 30000 nM; on human D2R/β-arrestin [6], 1000 to 10000 nM.
For `O=C(NC(c1ccc2c(c1)OC(F)(F)O2)c1ccccn1)C1CCN(CCOc2ccc(F)cc2F)CC1` (single isomer, unassigned) [Compound 130b, N-((2,2-difluorobenzo[d][1,3]dioxol-5-yl)(pyridin-2-yl)methyl)-1-(2-(2,4-difluorophenoxy)ethyl)piperidine-4-carboxamide], the IC50 on human D2R/β-arrestin [1] (setting [8]) is 1000 to 10000 nM; on human D2R/β-arrestin [4] (setting [8]), over 30000 nM. For the same molecule, the EC50 on human D2R/β-arrestin [2] was under 100 nM; at human D2R/β-arrestin [3] it was 100 to 1000 nM.
For the molecule `CN(CC1CCN(CCOc2ccccc2F)CC1)C(c1ccc2c(c1)OCO2)c1ccccn1` (single isomer, unassigned) [Compound 138b, 1-(benzo[d][1,3]dioxol-5-yl)-N-((1-(2-(2-fluorophenoxy)ethyl)piperidin-4-yl)methyl)-N-methyl-1-(pyridin-2-yl)methanamine], the IC50 is 100 to 1000 nM on human D2R/β-arrestin [1] (setting [8]) and under 100 nM on human D2R/β-arrestin [4] (setting [8]). Besides, the figures for the EC50 on human D2R/β-arrestin [2] and at human D2R/β-arrestin [3] were under 100 nM and over 30000 nM, respectively.
For the molecule `COc1cccc(C(NC(=O)C2CCN(CCOc3ccccc3)CC2)c2ccccc2)c1` (centres unmarked) [Compound 46], the IC50 on human D2R/β-arrestin [1] (setting [8]) is 1000 to 10000 nM. This molecule also gave a 50% effective concentration (EC50) at human D2R/β-arrestin [3] of over 30000 nM.
As for `CN(C(=O)C1CCN(CCOc2ccccc2)CC1)C(c1ccc(Cl)cc1)c1ccccn1` (centres unmarked) [Compound 51, N((4-chlorophenyl)(pyridin-2-yl)methyl)-N-methyl-1-(2-phenoxyethyl) piperidine-4-carboxamide], the EC50 at human D2R/β-arrestin [2] was 100 to 1000 nM; at human D2R/β-arrestin [3], over 30000 nM. Besides, the “Microsomal Stability: % remaining” value in data set [7] was “m0%”. For the same molecule, the IC50 is 1000 to 10000 nM on human D2R/β-arrestin [6] and over 30000 nM on human D2R/β-arrestin [4] (setting [8]).
On to `O=C(NC(c1cccc(OC(F)(F)F)c1)c1ccccn1)C1CCN(CCOc2ccccc2F)CC1` (centres unmarked) [Compound 93, 1-(2-(2-fluorophenoxy)ethyl)-N-(pyridin-2-yl(3-(trifluoromethoxy)phenyl)methyl)piperidine-4-carboxamide], for which the concentration for a half-maximal effect (EC50) at human D2R/β-arrestin [2] is under 100 nM; at human D2R/β-arrestin [3], over 30000 nM. For the same molecule, the “Microsomal Stability: % remaining” value in data set [7] is “m12%”. Further, the results for the IC50 at human D2R/β-arrestin [6] and at human D2R/β-arrestin [4] (setting [8]) were 100 to 1000 nM and over 30000 nM, respectively.
For the molecule `O=C(NC(c1ccc(Cl)cc1)c1ccccc1F)C1CCN(CCOc2ccccc2F)CC1` (centres unmarked) [Compound 96, N-((4-chlorophenyl)(2-fluorophenyl)methyl)-1-(2-(2-fluorophenoxy)ethyl) piperidine-4-carboxamide], the EC50 on human D2R/β-arrestin [2] was 100 to 1000 nM; at human D2R/β-arrestin [3] it was over 30000 nM. In addition, the “Microsomal Stability: % remaining” value in data set [7] is on record as “m26%”. Further, the IC50 on human D2R/β-arrestin [6] and on human D2R/β-arrestin [4] (setting [8]) was 100 to 1000 nM each time.
As for `Clc1ccc(C(OCC2CCN(CCOc3ccccc3)CC2)c2ccccn2)cc1` (centres unmarked) [Compound 99, 2-((4-chlorophenyl)((1-(2-phenoxyethyl)piperidin-4-yl)methoxy)methyl)pyridine], the EC50 at human D2R/β-arrestin [2] was 100 to 1000 nM; on human D2R/β-arrestin [3], over 30000 nM. Moreover, the “Microsomal Stability: % remaining” value in data set [7] is “m7%”. The values for the IC50 on human D2R/β-arrestin [6] and at human D2R/β-arrestin [4] (setting [8]) were 1000 to 10000 nM and over 30000 nM, respectively.
On to `Clc1ccc(C(c2ccccn2)N2CC3(CCN(CCOc4ccccc4)CC3)C2)cc1` (centres unmarked) [Compound 104, 2-((4-chlorophenyl)(pyridin-2-yl)methyl)-7-(2-phenoxyethyl)-2,7-diazaspiro[3.5]nonane], for which the EC50 on human D2R/β-arrestin [2] was 1000 to 10000 nM; at human D2R/β-arrestin [3], over 30000 nM. In addition, the “Microsomal Stability: % remaining” value in data set [7] is “m45%”. Further, the results for the IC50 on human D2R/β-arrestin [6] and on human D2R/β-arrestin [4] (setting [8]) were 10000 to 30000 nM and over 30000 nM, respectively.
For the molecule `CC(C)N(CC1CCN(CCOc2ccc(F)cc2)CC1)C(c1ccc(Cl)cc1)c1ccccn1` (centres unmarked) [Compound 135, N-((4-chlorophenyl)(pyridin-2-yl)methyl)-N-((1-(2-(4-fluorophenoxy)ethyl)piperidin-4-yl)methyl)propan-2-amine], the concentration for a half-maximal effect (EC50) on human D2R/β-arrestin [2] and at human D2R/β-arrestin [3] was over 30000 nM throughout. Also, the “Microsomal Stability: % remaining” value in data set [7] was “m2%”. The IC50 at human D2R/β-arrestin [6] was in the range of 1000 to 10000 nM; on human D2R/β-arrestin [4] (setting [8]), 100 to 1000 nM.
As for `CN(CC1CCN(CCOc2ccc(C(F)(F)F)cc2)CC1)C(c1ccc(Cl)cc1)c1ccccn1` (centres unmarked) [Compound 137, 1-(4-chlorophenyl)-N-methyl-1-(pyridin-2-yl)-N-((1-(2-(4-(trifluoromethyl)phenoxy)ethyl)piperidin-4-yl)methyl)methanamine], the EC50 on human D2R/β-arrestin [2] and at human D2R/β-arrestin [3] was over 30000 nM each time. Besides, in data set [7], the “Microsomal Stability: % remaining” value is listed as “m1%”. The IC50 at human D2R/β-arrestin [6] and at human D2R/β-arrestin [4] (setting [8]) was 1000 to 10000 nM each time.
